Measured values reported in ChEMBL document CHEMBL3507680, “University of Dundee, Gates Library screen for HepG2 cell viability”.

Experiment: Human HepG2 cell viability assay in 384 well format
Type: toxicity, cell-based
Parameters: dose 125 nL, time 70.5 hour; concentration not given beside the values
Conditions: HepG2 cells, read-out: Inhibition

SMILES	cytotoxicity at 70.5 h [%]
CCCC(=O)N1CCN(c2cc(-n3cnc(C)c3C)nc(C)n2)CC1	-2.01
O=C(COCc1ccccc1)N1CCCn2cncc2C1	-4.83
O=S(=O)(NCC1CCN(c2cnccn2)CC1)C1CC1	30.4
CN1CCOC(CN(C(=O)Cc2ccccc2F)c2nccs2)C1 (configuration not stated)	20.9
Cc1nc2c(c(N3CCC(O)(CN4CCCC4)CC3)n1)CCNCC2	-3.88
Cc1oncc1C(=O)NCc1cc(=O)n2c(n1)CN(CC(C)C)CCC2	22.7
Cc1cc(Cl)ccc1-n1ncc(C(=O)NCC2COC(C)(C)O2)c1N (configuration not stated)	23.9
O=C(NC1CC1)N1C[C@H]2CN(Cc3cccc(F)c3)C(=O)[C@H]2C1	-13.8
CC(C)(CNC(=O)C1(c2cccc(Br)c2)CCOCC1)C(=O)O	-0.158
COc1ccc(F)c(CN2CCCC3(CCN(C4CCOCC4)C3)C2)c1 (configuration not stated)	-4.15
Cc1ccccc1C1CCN(C(=O)CCNS(C)(=O)=O)C1 (configuration not stated)	20.6
Cc1cccnc1CNCC1(O)CCCN(Cc2ccc(F)cc2)C1=O (configuration not stated)	23.1
CS(=O)(=O)N1CCC(NC(=O)COc2ccc(Br)cc2Cl)CC1	30.2
COc1cccc2c1N(CC(=O)Nc1ccc(Cl)cn1)CCC2	0.717
Cc1nc(N)ccc1CC1COc2ccccc2C1 (configuration not stated)	15
OC(CN1CCC(c2ccn[nH]2)CC1)c1cc(F)ccc1F (configuration not stated)	-1.27
CCC(C(=O)NC1CCCC1)n1ccc2ncccc2c1=O (configuration not stated)	-16.4
Cc1noc(CNC(=O)C(C)(C)NC(=O)OC(C)(C)C)n1	18.7
CCC(=O)N1CCN(C(=O)CCn2cccn2)CC1	-7.9
CCn1cc2c(n1)C(COC)CN(C(=O)c1ccccn1)C2 (configuration not stated)	-9.71
Cc1cc(NC(=O)CN2CCc3c(nc(C(C)C)n3C)C2)on1	-14.3
O=C1C(NS(=O)(=O)c2ccc(F)c(F)c2)CCN1Cc1ccccc1 (configuration not stated)	-7.62
Cc1ccsc1C(=O)N1CCC2(CC(C(=O)N(C)C(C)C)=NO2)C1 (configuration not stated)	-2.65

SMILES	cytotoxicity at 70.5 h [%]
Cn1c(-c2cccs2)nn(CCNS(=O)(=O)c2ccccc2Cl)c1=O	-1.9
CC(C)Oc1ccc(C(O)CNCc2ccccc2C(F)(F)F)cc1 (configuration not stated)	-6.08
CCCN1CCCn2nc(CNC(=O)CCOC)cc2C1	-4.33
CCOc1ccccc1C(=O)N1CCCC(c2nccn2CCOC)C1 (configuration not stated)	10.7
CCN(C)c1ncnc2c1CCN(C(=O)c1ccno1)CC2	-7.5
O=S(=O)(C1CC1)N1Cc2[nH]nc(COCC3CC3)c2C1	-6.81
COCCN1CCN(Cc2ccc(Cl)cc2)[C@H]2CS(=O)(=O)C[C@H]21	0.00609
CO[C@H]1CCN(S(=O)(=O)c2cccs2)[C@H]1Cc1cccnc1	2.3
COCc1nc(CNC2CCSC2)no1 (configuration not stated)	-2.87
Cc1nnc([C@H]2C[C@H]3CN(C(=O)Cc4ccc(F)cc4)CC[C@@H]3O2)o1	-6.08
Cn1cc2c(n1)C(COCC1CC1)CN(Cc1ccccn1)C2 (configuration not stated)	15.6
CC(CN1CCCCCC1)NCc1cc(-c2ccco2)on1 (configuration not stated)	-12.2
Cc1ccc(F)cc1C(=O)N1CCN(S(C)(=O)=O)[C@@H](C)C1	-82.4
CCS(=O)(=O)Cc1nc(-c2cnn3c(C)cc(C)nc23)no1	-116
CCn1cc(C(=O)n2nc(C)cc2C)c(S(=O)(=O)N2CCCCC2)n1	-3.56
Cc1ncc(CN(C)C)c(C2CCCN2c2ncccn2)n1 (configuration not stated)	-7.95
COC(=O)N1CCN(Cc2ccccc2Cl)CC1	-1.89
Cc1cc(NC(=O)NCc2ccc(S(=O)(=O)N3CCCC3)s2)no1	-7.64
CC(=O)N(C)CC(=O)Nc1cc(C(F)(F)F)c[nH]c1=O	-12.8
Cn1cc(CN(Cc2ccccc2)Cc2ccccn2)cn1	18
N#Cc1ccc(CN2CCNC(=O)C2c2cccs2)cc1 (configuration not stated)	-3.15
CN(C(=O)c1ncn2c1CN(C)S(=O)(=O)c1ccccc1-2)C1CC1	-3.76
COc1ccccc1NC(=O)NCc1cn[nH]c1	-7.77

SMILES	cytotoxicity at 70.5 h [%]
O=C(NC[C@H]1O[C@H](Cc2cc(-c3ccccn3)on2)CC[C@@H]1O)C1CC1	-7.04
CNC(=O)C1CN(C)CCN1c1nc(C)cc(C)n1 (configuration not stated)	14.1
COC(=O)N1CCc2ccccc2C1C(=O)NCc1nc(C)no1 (configuration not stated)	-7.1
COCCN1CCO[C@H]2CCN(C(=O)c3cccs3)CC[C@@H]21	5.33
COc1c(C)cnc(CNC(=O)CCOCC(C)C)c1C	-4.31
Cc1nnc(-c2cccc(N3CCC(NC(C)CC(C)C)CC3)c2)s1 (configuration not stated)	-4.36
Cc1noc(C)c1NC(=O)Cn1cc(Br)ccc1=O	0.532
COc1nc(N2CCC(CC(N)=O)CC2)ncc1Br	-8.58
Cc1cc(N(C)C)nc(N(C)Cc2csc(C)n2)n1	-7.95
CCCS(=O)(=O)c1ccc(N2CCN(c3ccccn3)CC2)nn1	2.28
O=C(c1ccncc1)N1C[C@@H]2CCN(c3cccnc3)C[C@@H]2C1	-16.9
CCn1nc(C)c2ccn(CC(=O)NC(C)C)c(=O)c21	-2.74
Cn1c2c(ccc1=O)CC(NC(=O)Cc1ccsc1)CC2 (configuration not stated)	-2.49
O=C1CC2(CCN(Cc3ncc[nH]3)CC2)CN1Cc1ccc(Cl)cc1	-2.21
CSCC[C@H](NC(C)=O)c1nc(Cc2ccccc2)n[nH]1	6.58
CCN(CC)CCCC(C)NC(=O)c1cccnc1-n1cccn1 (configuration not stated)	3.18
CCOc1ncccc1C(=O)NC1CCCN(c2ncccn2)C1 (configuration not stated)	1.87
CCC1COCCN1C(=O)NCc1cccc(-c2cnn(C)c2)c1 (configuration not stated)	-6.22
O=C(C1CCCCC1)N1CCC(c2n[nH]c3nccnc23)CC1	-2.95
Cc1nc(N2CCN(C(=O)C(C)(C)C)CC2)cc(-n2cnc(C)c2C)n1	13
CCN(Cc1ccco1)C(=O)NCC(c1cccs1)N(C)C (configuration not stated)	20.6
CC(NCC1(N(C)C)CCOCC1)c1ccc(SC(F)F)cc1 (configuration not stated)	2.6
c1ccc(CCCN2CCCN(c3ncnc4[nH]ccc34)CC2)cc1	-15.3

SMILES	cytotoxicity at 70.5 h [%]
COc1ccc(Br)cc1CN(C)c1nc2c(cnn2C)c(=O)[nH]1	-10.6
Cn1cnc2cc(C(=O)NS(=O)(=O)c3ccc(F)cc3)ccc21	-5.36
CCC[C@@H]1CN(C(=O)c2cc3ccccc3cc2O)C[C@H]1N(C)C	28.4
CCCn1[nH]cc/c1=N\C(=O)CN1CCc2cnc(CC)nc2C1	2.85
Cc1cc(CNC(=O)NCc2cccs2)ccc1S(C)(=O)=O	-8.79
COc1cccc(Cl)c1C(C(=O)O)N1CCC(Cn2cccn2)CC1 (configuration not stated)	17.9
CC(=O)N1[C@H](Cn2cncn2)C[C@@H]2CN(CC3CC3)CC[C@@H]21	-1.99
Cn1cc(CN2CC[C@H](O)[C@@H](n3ccc(=O)[nH]c3=O)CC2)cn1	12.4
O=C(Nc1nncs1)NC1CCc2ccccc21 (configuration not stated)	-8.87
CN1CC(=O)N(c2cccnc2)CC12CCN(C(=O)c1cccn1C)C2 (configuration not stated)	1.98
CCc1nnc(CN2CCc3ccc(S(N)(=O)=O)cc32)o1	-0.999
O=C(NCc1ccco1)N1CCCCC1c1nc(-c2ccncc2)no1 (configuration not stated)	-12.6
Cc1cnc(N2CCO[C@@H]3CC(COCc4cccnc4)C[C@H]32)nc1 (some centres not stated)	-0.9
Cc1noc(C)c1CN1CCN(Cc2nc(C3CC3)no2)CC1	-12.8
Cc1noc(C)c1CN(C)C(=O)C1CCCCN1S(C)(=O)=O (configuration not stated)	13.6
CSCC(CCO)NC(=O)Nc1cc(F)ccc1C (configuration not stated)	10.3
COc1ccc(C(=O)N2CCCC2c2cnn(C)c2)cn1 (configuration not stated)	9.21
O=C(NCCCN1CCCC1=O)c1ccc(-n2ccc3ccccc32)s1	1.6
CC(C)C(=O)NCc1ccc(-n2cncn2)nc1	-4.44
Cc1ccc([C@@H]2CN(S(=O)(=O)c3ccccc3)C[C@H]2N(C)C)cc1	-9.61
CN(Cc1ccccc1)c1ncccc1CNC1CN2CCC1CC2 (configuration not stated)	-6.82
CN1CCC(Nc2ccc(F)cc2OCC(F)(F)F)C1=O (configuration not stated)	-0.0891
Cc1cccc(C)c1NC(=O)c1cccc(CN2CCCC2C)c1 (configuration not stated)	3.17

SMILES	cytotoxicity at 70.5 h [%]
c1cnc(N2CCC3(CCN(Cc4ccncc4)CC3)CC2)nc1	-15.7
COc1cc(F)ccc1NC(=O)NC(C)C(=O)NC(C)(C)C (configuration not stated)	-4.93
O=C(c1c(O)cc(F)cc1F)N1CCc2cnccc21	0.9
COCC(=O)N1CCOCC2(CCN(Cc3cccs3)C2)C1 (configuration not stated)	-10.6
CCc1ccccc1OCCN1CCC(NS(C)(=O)=O)CC1	3.87
Cc1nc(N2CCN(C)CC2)ncc1C(=O)N1CC[C@](C)(O)[C@H](C)C1	-7.36
CCC(=O)N1Cc2nnc(C3CCOCC3)n2C(Cc2c[nH]cn2)C1 (configuration not stated)	-7.01
O=C(c1cccc(CO)n1)N1CCCC1c1nc2cc(F)ccc2[nH]1 (configuration not stated)	16.2
Cc1ccc(C(O)CNC(=O)NCc2c(C)cc(C)[nH]c2=O)cc1 (configuration not stated)	-9.83
CN1CCN(Cc2ccc(-c3ccc(-c4ccn[nH]4)cc3)nc2)CC1	0.0371
CSCCC1c2nc[nH]c2CCN1Cc1cncn1C (configuration not stated)	33.9
CNc1cc2c(nn1)CCN(C(=O)c1ccccc1-n1cccn1)C2	47.8
CCN1CCN(C(=O)c2ccc(=O)n(C)c2)c2ccccc21	-3.86
O=C(Cc1ccccc1F)N1CCC[C@@H]1Cn1c(=O)oc2ccccc21	6.08
O=C1Nc2ccccc2CC12CCCN2Cc1ccc(C(F)(F)F)cc1 (configuration not stated)	6.34
Cc1ccc(C#N)c(N2CCC3(CCC(=O)N(CC(N)=O)C3)CC2)n1	-9.24
Cc1ccc(C(=O)Nc2ccc(N3CCC(O)CC3)c(C#N)c2)s1	29.7
CC(C)c1noc(CC[C@@H]2CCCN3CCCC[C@H]23)n1	-0.439
CC(C)n1cc(CN2CCCN(C(=O)c3ccco3)CC2)cn1	21
Cc1noc([C@@H]2CC[C@@H]3[C@@H](CCN3S(C)(=O)=O)O2)n1	-16.7
